Values of other authors as cited in patent US20250345298A1, “APOE4 CORRECTORS AND METHODS OF USE” (Alzheon, Inc., priority 2022, published 2025).

CC(C)[C@H](N)C(=O)NCCCS(=O)(=O)O [ALZ-801, valyl-3-amino-1-propanesulfonic acid]
safety in human subjects: safe

NCCCS(=O)(=O)O [Tramiprosate, 3-amino-1-propanesulfonic acid]
efficacy in Alzheimer's disease trials (human clinical trials for AD): suggested efficacy in at least some patients
safety in human subjects: safe
